Assays:
human STING (HAQ) [1] = biological target: T1, human STING (HAQ) (Homo sapiens, UniProt Q86WV6, G230A/H232R/R293Q); assay: biochemical; format: binding; settings: for DSF huSTING (HAQ) ΔTm (° C.): 1 μM protein, compound at 100 μM
Experimental: (§1) DSF monitors thermal unfolding of protein in the presence of a fluorescent dye and is typically performed using a real-time PCR instrument. The temperature at which a protein unfolds is measured by an increase in the fluorescence of a dye with affinity for hydrophobic parts of the protein that are gradually exposed during unfolding. The fluorescence of the dye is quenched in aqueous environments, but when the dye associates with hydrophobic sites on the unfolded protein, its fluorescence increases. The fluorescence intensity is plotted as a function of the temperature, generating a sigmoidal curve that can be described by a two-state transition. The inflection point of the transition curve (Tm) is calculated using simple equations such as that of Boltzman.
(§2) Sealed plates were then placed into a Bio-Rad CFX96/C1000 thermocycler and FRET scanning mode (λ^excitation of 490 nm and reads at λ^emission of 570 nm) was used to measure fluorescence intensity. […] The melting point (Tm) obtained for STING protein alone was subtracted from Tm obtained for protein incubated with ligand to generate ΔTm values listed in the table below.
(§3) These additional compounds were tested as described above, however the protein concentration was 2 μM.

huSTING (WT) [2] = biological target: T2, huSTING (WT) (Homo sapiens (Human), UniProt Q86WV6, H232R); assay: Differential scanning fluorimetry (DSF), huSTING (WT); format: binding; settings: read-out: DSF huSTING (WT) ΔTm (° C.)
Experimental: as §1, §2, §3
Target sequence in this assay (Q86WV6 other isoform, or with tags, fused parts or gaps, stated change not applied): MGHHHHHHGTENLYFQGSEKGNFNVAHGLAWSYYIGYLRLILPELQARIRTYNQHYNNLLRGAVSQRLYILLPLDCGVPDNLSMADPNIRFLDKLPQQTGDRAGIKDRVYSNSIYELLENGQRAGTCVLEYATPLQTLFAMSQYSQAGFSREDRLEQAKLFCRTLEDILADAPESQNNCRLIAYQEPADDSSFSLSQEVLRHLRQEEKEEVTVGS

huSTING (HAQ) = huSTING (HAQ) (Homo sapiens (Human), UniProt Q86WV6, G230A/H232R/R293Q/R71H); assay: THP-1 reporter cell line assay, THP-1 STING Lucia ISG cells; format: cell-based; settings: THP-1 STING Lucia ISG cells; 24 h; top concentration 50 μM; read-out: Cellular EC50 huSTING (HAQ)
huSTING (HAQ), sequence (Q86WV6 whole entry R71H/G230A/H232R/R293Q): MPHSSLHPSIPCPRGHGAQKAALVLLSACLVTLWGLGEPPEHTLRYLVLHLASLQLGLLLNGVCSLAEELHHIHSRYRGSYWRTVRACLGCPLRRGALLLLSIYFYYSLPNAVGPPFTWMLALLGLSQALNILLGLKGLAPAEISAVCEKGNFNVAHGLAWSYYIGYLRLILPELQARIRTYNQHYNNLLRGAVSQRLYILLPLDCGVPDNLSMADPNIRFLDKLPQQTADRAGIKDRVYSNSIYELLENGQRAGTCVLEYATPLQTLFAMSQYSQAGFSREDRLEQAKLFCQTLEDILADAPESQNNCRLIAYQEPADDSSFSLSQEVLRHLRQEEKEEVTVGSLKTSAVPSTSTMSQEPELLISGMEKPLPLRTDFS

huSTING (WT) [3] = biological target: T2, huSTING (WT); assay: THP-1 reporter cell line assay, THP-1-Dual KI-hSTING-R232 cells; format: cell-based; settings: read-out: Cellular EC50 huSTING (WT)
Target sequence in this assay (Q86WV6 whole entry H232R): as the sequence (Q86WV6 whole entry R71H/G230A/H232R/R293Q) above, with H71R, A230G, Q293R counted along it

human STING (HAQ) [4] = biological target: T1, human STING (HAQ); settings: read-out: SPR (HAQ) KD; 25° C.

T1 sequence (Q86WV6 whole entry G230A/H232R/R293Q, looked up): as the sequence (Q86WV6 whole entry R71H/G230A/H232R/R293Q) above, with H71R counted along it

SMILES | DSF huSTING (HAQ) ΔTm (° C.) (human STING (HAQ) [1]) [°C] | ΔTm at 100 µM (huSTING (WT) [2]) [°C] | EC50 (huSTING (HAQ)) [µM] | EC50 (huSTING (WT) [3]) [µM] | Kd (human STING (HAQ) [4]) [µM] | ΔTm at 100 µM (human STING (HAQ) [1]; read-out: DSF huSTING (HAQ) ΔTm (° C.)) [°C]
NC(=O)c1ccc(OCc2c(C(=O)O)sc3ccc(F)c(F)c23)cc1 [Example 16, 3-((4-Carbamoylphenoxy)methyl)-4,5-difluorobenzo[b]thiophene-2-carboxylic acid] | 10.12 | 3.49 | > 50 | > 50 | 2.19 | 
Cc1ccc2sc(C(=O)O)c(COc3ccc(C(N)=O)cc3)c2c1Cl [Example 18, 3-((4-Carbamoylphenoxy)methyl)-4-chloro-5-methylbenzo[b]thiophene-2-carboxylic acid] | 6.29 | -0.6 | > 50 | > 50 | 15.9 | 
NC(=O)c1ccc(OCc2c(C(=O)O)sc3cc(Cl)cc(F)c23)cc1 [Example 20, 3-((4-Carbamoylphenoxy)methyl)-6-chloro-4-fluorobenzo[b]thiophene-2-carboxylic acid] | 5.83 | -2.76 | > 50 | > 50 | 34 | 
NC(=O)c1ccc(OCc2c(C(=O)O)sc3cccc(Br)c23)cc1 [Example 22, 4-Bromo-3-((4-carbamoylphenoxy)methyl)benzo[b]thiophene-2-carboxylic acid] | 17.08 | 7.61 | > 50 | 41 | 0.755 | 
NC(=O)c1ccc(OCc2c(C(=O)O)sc3cccnc23)cc1 [Example 24, 3-((4-Carbamoylphenoxy)methyl)thieno[3,2-b]pyridine-2-carboxylic acid] |  | -0.35 | > 50 | > 50 | > 10000 | 0.6
NC(=O)c1ccc(OCc2c(C(=O)O)sc3cccc(Cl)c23)cc1F [Example 26, 3-((4-Carbamoyl-3-fluorophenoxy)methyl)-4-chlorobenzo[b]thiophene-2-carboxylic acid] | 10.82 | 3.79 | > 50 | > 50 | 1.6 | 
NC(=O)c1c(F)cc(OCc2c(C(=O)O)sc3cccc(Cl)c23)cc1F [Example 28, 3-((4-Carbamoyl-3,5-difluorophenoxy)methyl)-4-chlorobenzo[b]thiophene-2-carboxylic acid] | 6.93 | 1.19 | > 50 | > 50 | 10.9 | 
COc1cc(C(N)=O)ccc1OCc1c(C(=O)O)sc2cccc(Cl)c12 [Example 30, 3-((4-Carbamoyl-2-methoxyphenoxy)methyl)-4-chlorobenzo[b]thiophene-2-carboxylic acid] | 5.4 | -0.32 | 36.3 | > 50 | 22.1 | 
NC(=O)c1ccc(OCc2c(C(=O)O)sc3cc(F)cc(F)c23)cc1 [Example 32, 3-((4-Carbamoylphenoxy)methyl)-4,6-difluorobenzo[b]thiophene-2-carboxylic acid] | 7.23 | 0.63 | > 50 | > 50 | 7.75 | 
COc1cccc2sc(C(=O)O)c(COc3ccc(C(N)=O)cc3)c12 [Example 34, 3-((4-Carbamoylphenoxy)methyl)-4-methoxybenzo[b]thiophene-2-carboxylic acid] | 10.07 | 3.76 | > 50 | > 50 | 2.48 | 
NC(=O)c1ccc(OCc2c(C(=O)O)sc3cccc(C(F)(F)F)c23)cc1 [Example 36, 3-((4-Carbamoylphenoxy)methyl)-4-(trifluoromethyl)benzo[b]thiophene-2-carboxylic acid] | 12.31 | 5.96 | > 50 | > 50 | 1.33 | 
NC(=O)c1ccc(OCc2c(C(=O)O)sc3cccc(Cl)c23)c(Cl)c1 [Example 38, 3-((4-Carbamoyl-2-chlorophenoxy)methyl)-4-chlorobenzo[b]thiophene-2-carboxylic acid] | 6.02 | -1.4 | > 50 | > 50 | 16.4 | 
NC(=O)c1cc(Cl)c(OCc2c(C(=O)O)sc3cccc(Cl)c23)c(Cl)c1 [Example 40, 3-((4-Carbamoyl-2,6-dichlorophenoxy)methyl)-4-chlorobenzo[b]thiophene-2-carboxylic acid] | 9.91 | 3.66 | > 50 | 39.7 | 2.8 | 
NC(=O)c1ccc(OCc2c(C(=O)O)sc3cccc(Cl)c23)cn1 [Example 46, 3-(((6-Carbamoylpyridin-3-yl)oxy)methyl)-4-chlorobenzo[b]thiophene-2-carboxylic acid] | 7.26 | 1.77 | > 50 | > 50 | 9.7 | 
Nc1noc2cc(OCc3c(C(=O)O)sc4cccc(Cl)c34)ccc12 [Example 48, 3-(((3-Aminobenzo[d]isoxazol-6-yl)oxy)methyl)-4-chlorobenzo[b]thiophene-2-carboxylic acid] | 1.92 | -4.63 | > 50 | > 50 | 16.3 | 
NC(=O)c1ccc(OCc2c(C(=O)O)sc3cccc(F)c23)cc1Cl [Example 50, 3-((4-Carbamoyl-3-chlorophenoxy)methyl)-4-fluorobenzo[b]thiophene-2-carboxylic acid] | 5.11 | 0.02 | > 50 | > 50 | 20.9 | 
NC(=O)c1ccc(OCc2c(C(=O)O)sc3cccc(F)c23)cc1C(F)(F)F [Example 52, 3-((4-Carbamoyl-3-(trifluoromethyl)phenoxy)methyl)-4-fluorobenzo[b]thiophene-2-carboxylic acid] | −1.22 | -2.15 | > 50 | > 50 | 260 | 
Cc1cc(OCc2c(C(=O)O)sc3cccc(F)c23)ccc1C(N)=O [Example 54, 3-((4-Carbamoyl-3-methylphenoxy)methyl)-4-fluorobenzo[b]thiophene-2-carboxylic acid] | 2.56 | -1.28 | > 50 | > 50 | 51 | 
NC(=O)c1cc(F)c(OCc2c(C(=O)O)sc3cccc(F)c23)c(Br)c1 [Example 56, 3-((2-Bromo-4-carbamoyl-6-fluorophenoxy)methyl)-4-fluorobenzo[b]thiophene-2-carboxylic acid] | 4.48 | -1.29 | > 50 | > 50 | 29 | 
NC(=O)c1cc(F)c(OCc2c(C(=O)O)sc3cccc(F)c23)c(F)c1 [Example 57, 3-((4-Carbamoyl-2,6-difluorophenoxy)methyl)-4-fluorobenzo[b]thiophene-2-carboxylic acid] | 10.74 | 3.43 | > 50 | > 50 | 9.05 | 
NC(=O)c1ccc(OCc2c(C(=O)O)sc3cccc(F)c23)c(F)c1 [Example 59, 3-((4-carbamoyl-2-fluorophenoxy)methyl)-4-fluorobenzo[b]thiophene-2-carboxylic acid] | 7.31 | 0.54 | > 50 | > 50 | 15.2 | 
NC(=O)c1ccc(OCc2c(C(=O)O)sc3cccc(C4CC4)c23)cc1 [Example 61, 3-((4-Carbamoylphenoxy)methyl)-4-cyclopropylbenzo[b]thiophene-2-carboxylic acid] | 14.62 | 5.68 | 39.6 | > 50 | 0.83 | 
NC(=O)c1ccc(OCc2c(C(=O)O)sc3cccc(Cl)c23)cc1Br [Example 64, 3-((3-Bromo-4-carbamoylphenoxy)methyl)-4-chlorobenzo[b]thiophene-2-carboxylic acid] | 6.79 | 2.73 | > 50 | > 50 | 6.2 | 
NC(=O)c1cc(F)c(OCc2c(C(=O)O)sc3cccc(Cl)c23)c(Br)c1 [Example 71, 3-((2-Bromo-4-carbamoyl-6-fluorophenoxy)methyl)-4-chlorobenzo[b]thiophene-2-carboxylic acid] | 12.18 | 5.11 | 21.4 | 40.4 | 2.12 | 
